The term melting point denotes the temperature, or range, at which the solid turns liquid.

With `CN1CCN(CC(=O)N2c3ccccc3C(=S)Nc3cccnc32)CC1`, the melting point lay within 240 to 241 °C.
Then `COc1ccc(CCNC(=O)C(=O)NCc2cccnc2)cc1OC1CCCC1`, with 148 to 149 °C; and `Cn1cnc(COc2nn3c(-c4ccccc4)nnc3cc2-c2ccccc2)c1`, with 199 to 202 °C; and `COc1cc(CCCCC2OC(=O)NC2=O)ccc1O` (stereo not given), with 115 to 116 °C.
`CC1(C)CCCC(C)(C)N1c1nc(NCCO)nc(NCCO)n1` returned a melting point of 147 to 148 °C.
With `CCOC(=O)c1c(C)nn(-c2cccc(N)c2)c1C`, the melting point is 93 to 95 °C.
The compound `CCOC(=O)Cc1cnc(C(C)(C)C)nc1Cl` returned a melting point of 42 to 44 °C.
The compound `COC(=O)C(c1ccc(N)cc1)C1CC1` (stereo not given) came in with a melting point of 68 to 69 °C.
`CSc1cccc2c3c(n(Cc4ccc(Cl)cc4)c12)C(CC(=O)O)CCC3` (stereo not given) had a melting point of 141 to 142 °C.
Compound `CS(=O)(=O)c1ccnc(Oc2ccccc2)n1` gave a melting point of 86 to 87 °C.
Consider `COC(=O)C(Oc1cc(OCc2ccsc2)ccc1C#N)c1ccccc1Cl` (racemic), for which the melting point was 102 to 104 °C.
Consider `CN(C(=O)COc1nc2c(F)cccc2s1)c1ccccc1`, for which the melting point was 94 °C.
`CS(=O)(=O)c1ccc(-c2cnn(-c3ccc([N+](=O)[O-])cc3)c(=O)c2-c2ccc(F)cc2)cc1`: the melting point lay within 110 to 116 °C.
In the case of `CCC(N)(CO)CS(=O)(=O)c1ccccc1C(=O)c1ccccc1` (stereo not given) it was 150 to 151 °C; in that of `CCCCc1nc(NC(=N)N)sc1-c1cccc([N+](=O)[O-])c1`, 140 to 142 °C.
Compound `Cc1ccc(-c2c(CNC(=O)OC(C)(C)C)c(CC(C)C)nc3ccc(-c4nc(C(=O)OC(C)C)cs4)cc23)cc1` yielded a melting point of 190 to 191 °C.
In the case of `N#Cc1ccccc1F` it was 98 to 100 °C; in that of `COc1cccc(C(=O)NCCCCCCCNC(=O)c2cccc(OC)c2)c1`, 109 to 112 °C.
In the case of `COc1cccc2c(O)c(C)c(C)nc12`, the melting point was over 290 °C.
In the case of `NS(=O)(=O)c1cc2[nH]c(=O)c(=O)[nH]c2cc1[N+](=O)[O-]` it was over 330 °C; in that of `CC(C)C(=O)N[C@@H](CSC(=O)c1ccccc1)C(=O)NCCSC(=O)C(C)C`, 155 to 157 °C.
In turn, `Nc1nc(N)nc(C2CC3CC2CC3c2nc(N)nc(N)n2)n1` (stereo not given) gave a melting point of 317 to 324 °C.
On to `O=S(=O)(Cl)c1ccc(Cl)c(CBr)c1Cl`, for which the melting point is 90 to 92 °C.
On to `O=[N+]([O-])c1ccc(-c2nnc3ccc(N=CCN4CCCCC4)nn23)o1`, for which the melting point lay in the range of 207 to 209 °C.
With `Cc1oc(-c2ccccc2)nc1C(=O)NN`, the melting point fell in the range of 144 to 146 °C.
Compound `CCOC(=O)C1CSCCN1C(=O)Nc1ccc(Cl)cc1` (stereo not given) yielded a melting point of 152 to 154 °C.
With `Cc1ccc(C(=S)OCSC#N)cc1`, the melting point was 55 °C.
As for `Fc1ccc(-c2c[nH]cn2)cc1`, the melting point is 130 to 132 °C.
`CNC(Cc1ccc(C(F)(F)F)cc1N)c1sccc1C` (stereo not given) came in with a melting point of 52 to 54 °C.
With `COC(=O)Cc1cc(Cl)c2c(c1)CCC(c1ccccc1)N2C` (stereo not given), the melting point lay within 78 to 80 °C.
The compound `COc1cccc(C(=O)NCC(=O)N2c3ccccc3N(Cc3ccccc3)C(=O)[C@H]3CCC[C@H]32)c1` (relative stereo) showed a melting point of 160 to 161 °C.
`CC(=O)N1CCC(n2cc(C3=C(c4cn(C)c5ccccc45)C(=O)NC3=O)c3ccccc32)CC1` showed a melting point of over 293 °C.
Take `COc1cc(N(C)C)c(Cl)cc1C(=O)NC1CCN(Cc2ccc(F)cc2)C1` (stereo not given): the melting point lay within 139 to 141 °C.
Regarding `CCCCSC(=NC(=O)N(CCC)CCC)NC(=O)NC(C)(C)C`, the melting point was in the range of 92 to 94 °C.
As to `Cn1c(O)nc2cc(Cn3ccnc3)ccc21`, the melting point was 207 °C.
The compound `CCOC(=O)c1cc(=O)c2ccc(OCCCCl)cc2o1` had a melting point of 107 to 108 °C.
As to `CCCCCCCCCCCCCCC1CC1C(=O)O` (stereo not given), the melting point was 62 to 64 °C.
Take `CCCCc1ccc(C2(C)OC(=C(C#N)C#N)C(C#N)=C2C)cc1` (stereo not given): the melting point lay in the range of 129 to 130 °C.
For the compound `CC(Cc1c[nH]c2ccccc12)(NC(=O)OC1C2CC3CC(C2)CC1C3)C(=O)NCCC1=CCCCC1` (stereo not given), the melting point was in the range of 77 to 79 °C.
`COC(=O)C1CCC2C3CCC4CC(OC(=O)CCl)CCC4(C)C3C(OC(=O)CCl)CC12C` (stereo not given): the melting point lay within 149 to 155 °C.
Turning to `CCCCNC(=O)Cc1ccc2c(c1)c(Cc1ccc(C(=O)NS(=O)(=O)c3ccccc3C)cc1OC)cn2CCC`, the melting point was 100 to 102 °C.
Turning to `Cc1cccc(C(=O)Nc2nc(=O)n(C3OC(C)C(O)C3O)cc2F)c1` (stereo not given), the melting point lay within 146 to 148 °C.
In the case of `O=C(Nc1cc(-c2nc(-c3ccccc3)c[nH]2)ccn1)c1ccccc1` it was 265 to 267 °C; in that of `O=S1(=O)C=CC=CC=N1`, 144 to 146 °C.
As for `CC1CC2=CC(=O)CCC2C2C(F)CC3(C)C(=O)CCC3C12` (stereo not given), the melting point was 84.8 °C.
Then `CC(C)N(CCC(CCN1CCCC1)(C(N)=O)c1ccccc1)C(C)C` (stereo not given), with 79 to 80 °C; and `FC(F)(F)c1ccc(C#Cc2ccc(C#Cc3cc4ccccc4s3)s2)cc1`, with 149 to 150 °C.
In turn, `CCc1nc(-c2ccc(OCCCn3ccnc3C)cc2)no1` displayed a melting point of 77 to 78.5 °C.
In turn, `CS(=O)(=O)c1ccc(-c2cc(CCCC(=O)O)nn2-c2ccc(C(F)(F)F)cc2)cc1` returned a melting point of 155 to 156 °C.
Take `COc1ccc(C(=O)Oc2cccc3cc4cccc(OC(=O)c5ccc(OC)cc5)c4c(OC(=O)c4ccc(OC)cc4)c23)cc1`: the melting point is 260 °C.
Then `COc1cccc2c1nc(C(F)F)n2-c1nc(N2CCOCC2)c2ncn(-c3cncnc3)c2n1`, with 248 to 251 °C; and `Cc1[nH]c(=S)[nH]c1C(N)=O`, with under 300 °C.
On to `CCOC(=O)COc1ccc(C(=O)c2cccs2)c2ccccc12`, for which the melting point was 79 °C.
Then `Cc1cc2ccccc2cc1C=O`, with 119 °C.
For the compound `O=C(O)CCCNC(=O)C(CS)Cc1ccccc1` (stereo not given), the melting point fell in the range of 94.5 to 101 °C.
The compound `CC(C)(C)OC(=O)c1n[nH]c2nc(N3CCNCC3)ccc12` displayed a melting point of 190 to 191 °C.
The compound `O=C(C#Cc1ccc(CN2CCC(N3CCCC3)CC2)cc1)Nc1ccc(-c2ccc(Cl)cc2)cc1` came in with a melting point of 191 to 192 °C.
In the case of `COC(=O)c1cc(N2CCNC2=O)c2cc(Cc3ccc(F)cc3)cnc2c1O`, the melting point is 248 to 250 °C.
Then `O=C(c1ccc(F)cc1)C1CCN(CCCn2c(=O)sc3ccccc32)CC1`, with 83 °C; and `CCCC1(S(=O)(=O)CCC(=O)OC)c2ccccc2-c2ccccc21`, with 74 to 77 °C.
`COc1cc(Nc2c(C#N)cnc3cc(-c4ccc(CN5CCC(CC(=O)O)CC5)cc4)ccc23)c(Cl)cc1Cl` had a melting point of 239 to 240 °C.
Take `CC(C)(C)NC(=O)Nc1ccc([N+](=O)[O-])cc1O`: the melting point is 99 to 101 °C.
In the case of `CCOc1cc(NC(=O)CCC(=O)c2ccc(OCC)c(OCC)c2)nc(-c2ccccc2)c1` it was 172 to 173 °C.
For the compound `COc1ccccc1CC(=O)N1C[C@@H]2[C@H](F)CCC(c3ccccc3)(c3ccccc3)[C@@H]2C1`, the melting point came out at 205 °C.
For `CCOC(=O)Cc1ccc(OCc2nc(-c3ccccc3)oc2C)c(OC)c1`, the melting point is 86 to 87 °C.
`Cc1ccc2c(n1)Oc1ccc(C(C)C(=O)OCC(N)=O)cc1C2` (stereo not given) showed a melting point of 175 to 177 °C.
As to `O=C(O)c1cnc2ccn(Cc3ccccc3)n2c1=O`, the melting point lay within 198 to 199 °C.
The compound `Cc1nnc(-c2ccc3occ(-c4ccc(S(=O)C(F)(F)F)cc4)c3c2)o1` (stereo not given) registered a melting point of 183 to 184 °C.
With `CCCNCC(O)c1cccc(Cl)c1` (stereo not given), the melting point was in the range of 69.5 to 71 °C.
`COc1ccccc1C(c1ccccc1)c1cccc(-c2ccccc2)c1O` (stereo not given) displayed a melting point of 120 °C.
In turn, `CNC(=O)Nc1ccc(C2=NN(C(=O)NC)C(C)Cc3cc4c(cc32)OCO4)cc1` (stereo not given) returned a melting point of 181 to 183 °C.
As for `Cc1cc(C(=O)O)ccc1C1=CCCc2ccccc21`, the melting point turned out to be 173 °C.
Consider `O=[N+]([O-])c1ccc(S(=O)C2CC2)cc1` (racemic), for which the melting point fell in the range of 104 to 106 °C.
With `COC[C@H]1CC[C@H](c2ccc(I)cc2)CC1`, the melting point lay within 40.3 to 42.3 °C.
The compound `Cc1[nH]c2ccc(F)cc2c1C(=O)Nc1ccc(N2CCC(O)CC2)c(C#N)c1` registered a melting point of 169 to 171 °C.
With `CC(C)c1cc(-c2ccc(F)cc2)n(-c2ccccn2)n1`, the melting point was in the range of 80 to 81 °C.
The compound `COCc1sc(N)nc1C` returned a melting point of 132 to 135 °C.
Take `O=C(CCc1cc(-c2ccccc2)nc2ccccc12)N1CCCC1`: the melting point was 116 °C.
`CN1Cc2c(N)ncn2-c2ccccc2C1=O` registered a melting point of 202 to 204 °C.
In the case of `CCOC(=O)c1c(C)nc(NCCCN(C)C)c2nccnc12` it was 55 to 57 °C.
Regarding `COc1cc(S(=O)(=O)N2CCNCC2)cc(OC)c1OC`, the melting point is 131 to 133 °C.
Then `C[C@H](c1ccc(F)cc1)N1CCN(c2cc(Oc3cccc4ncc(N)nc34)ncn2)CC1`, with 118 °C.
In the case of `Nc1nc2c(ncn2OCC/C=C\P(=O)(O)O)c(=O)[nH]1`, the melting point lay within 240 to 242 °C.
In turn, `CCCc1nc(NC)nc(N2CCOCC2)n1` gave a melting point of 131 to 133 °C.
For `Cc1c(N2C[C@H](C)[C@H](NC(=O)C(F)(F)F)C2)c(F)c(N)c2c(=O)c(C(=O)O)cn(C3CC3)c12` (relative stereo), the melting point was in the range of 253 to 254 °C.
`CC(=O)NC1CCC(NC(=O)C2CC3c4cccc5c4c(cn5C(C)C)CC3N(C)C2)CC1` (stereo not given) gave a melting point of over 280 °C.
Compound `CCn1ncc2c3noc(-c4ccc(F)cc4)c3cnc21` had a melting point of 222 to 223 °C.
Then `C[C@H]1[C@H]2O[C@H]2C(S(=O)(=O)c2ccccc2)=C[C@H](C)[C@H]1O[Si](C)(C)C(C)(C)C`, with 89 to 90 °C; and `CC(=O)N1CCc2c(c(=O)c3cccnc3n2-c2ccccc2)C1`, with 210 to 212 °C; and `O=C1C=C(O)CC(c2ccc3c(c2)OCCO3)C1` (stereo not given), with 188 °C.

Values taken from a melting point compilation (Tetko et al.; mined from patent text by program, amines drawn as free bases though some values may be those of a salt).
